Results from patent US20040260071A1, “Benzophene-linked crf and crf-like peptides for covalent labeling of corticotropin-releasing factor crf binding protein” (priority 2001, published 2004).
“And” between values parts separate entries of the source, which are not always exact repeats. Equal values may be shown once. Non-standard residues stand in square brackets, D forms with d. Residues, ends and D or L forms follow the SMILES beside them. No end group written: not given here. *: point of attachment. Benzoyl(4-benzoyl) = O=C(c1ccccc1)c1ccc(C(=O)*)cc1; Bpa = N[C@@H](Cc1ccc(C(=O)c2ccccc2)cc1)C(=O)O

Legend:
rCRFBP [1] = biological target: T1, rCRFBP (Rattus norvegicus, UniProt P24388); assay: Radioligand binding assay (charcoal precipitation, 3H-rUcn) for affinity to rCRFBP; settings: for Ki: mean ± S.E.M. of three independent experiments in duplicate, 3H-rUcn radioligand, Cheng-Prusoff, read-out: Inhibition constants (Kl)
T1 construct: made in house; host or cells: HEK 293 cells, stably transfected (pcDNA3); serum-free conditioned medium used directly
T1 sequence (P24388 25-322): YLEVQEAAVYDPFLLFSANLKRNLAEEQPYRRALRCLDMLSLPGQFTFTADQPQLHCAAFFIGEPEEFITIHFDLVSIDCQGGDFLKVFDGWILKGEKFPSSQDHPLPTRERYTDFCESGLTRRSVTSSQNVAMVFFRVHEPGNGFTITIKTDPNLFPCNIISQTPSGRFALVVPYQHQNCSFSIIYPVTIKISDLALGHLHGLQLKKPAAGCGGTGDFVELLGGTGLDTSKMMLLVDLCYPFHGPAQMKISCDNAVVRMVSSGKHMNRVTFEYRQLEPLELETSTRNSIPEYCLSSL
Experimental: The peptides were tested for their affinity to rCRFBP on the basis of a charcoal precipitation assay utilizing tritiated Ucn as radioligand (21). […] Siliconized microreaction vials (Sigma, Deisenhofen, Germany) were used to prevent binding of peptides to plastic surfaces. Competition binding experiments were performed by employing 0 to maximally 3 μM unlabeled competitor. The applied concentration range depended on the expected order of magnitude of ligand affinity. After 2 hours of incubation at room temperature, unbound ligand was precipitated by the addition of 100 μl precipitation buffer (binding buffer+10% w/v activated charcoal+2% BSA). The suspension was mixed vigorously and the adsorption was allowed to proceed for 2 min at room temperature. After centrifugation for 2 min at 12000×g, 200 μl supernatant was removed, mixed with 2 ml Ecolume liquid scintillation cocktail (ICN Biomedicals, Irvine, Calif.), and counted for 3 min in a Wallac 1209 Rackbeta liquid scintillation counter (Wallac, Turku, Finland). All assays were performed in duplicate and repeated at least three times. Binding data were analyzed using the Prism computer program (GraphPad Software, San Diego, Calif.).

rCRFBP [2] = biological target: T1, rCRFBP; assay: Photoaffinity labeling of rCRFBP (photoadduct formation); format: biochemical; settings: for Photoadduct yield determined by immunoblotting: comparison of photoprobes (FIG. 6)
Experimental: 1 nM CRFBP was incubated with a 100 fold molar excess of photoactivatable ligand for 1 hour at room temperature. […] The irradiation was carried out with UV-light of wavelenghts greater than 300 nm in an ice bath.
rCRFBP (approximate final concentration 10 nM) was incubated with 100 nM of the photoactivatable peptide according to the conditions of the radioligand binding assay. Medium from stably transfected HEK 293 cells was directly used as source for rCRFBP. Irradiation of the benzophenone photoprobes was carried out at 0° C. with a self-constructed photoreaction device incorporating a 400 W halogen metal vapor lamp (Ultratech, Osram, Germany). This lamp provides a wide spectrum of emission at wavelenghts above 250 nm with a maximum at 370 nm which is consistent with the activation wavelenght (350-360 nm) for benzophenone derivatives (13). Protein-damaging wavelenghts below 300 nm were avoided by the use of a filter screen consisting of the optical glass type B 270 (Schoft, Mainz, Germany). The aryldiazirine photoprobe was irradiated as described (14) using a commercially available stratalinker device.
Unless otherwise stated, activation was carried out for 30 min at 0° C. with an Ultratech 400 W halogen metal vapor lamp (Osram). Protein-damaging wavelenghts below 300 nm were filtered with a B270 glass screen (Schott). Unlabeled rCRFBP and the photoadduct were co-purified by adsorption to a nickel-chelate matrix under denaturing conditions. The eluted fraction was analyzed by SDS PAGE (45) (9% polyacrylamide gels) and by reversed-phase HPLC coupled on-line to mass spectrometry (HPLC-MS) on a Vydac C4 column (0.3×150 mm; LC Packings).

rCRFBP [3] = biological target: T1, rCRFBP; assay: Scintillation proximity assay with [125I-Tyr0]h/rCRF as radioligand, binding to rCRFBP; settings: for IC50: Example 8, 95% CI given alongside, read-out: IC50 (affinity to rCRFBP)
Excerpt: Recombinant rCRFBP containing a C-terminal His-tag was produced in human embryonic kidney (HEK) 293 cells under serum-free conditions (45).

CRFBP = biological target: T2, CRFBP (Rattus norvegicus, UniProt P24388); settings: relative to Svg; cited from earlier work
T2 sequence (P24388 25-322): T1 sequence (P24388 25-322)

[4] = photoprobes 100 nM, competitor 1 μM (FIG. 12a)
[5] = photoprobe pBB-rUcn, competitor in ten-fold excess (FIG. 5)

For `CC[C@H](C)[C@H](NC(=O)[C@H](CO)NC(=O)[C@H](CC(C)C)NC(=O)[C@@H]1CCCN1C(=O)[C@@H]1CCCN1C(=O)[C@H](CC(=O)O)NC(=O)[C@H](CC(=O)O)NC(=O)c1ccc(C(=O)c2ccccc2)cc1)C(=O)N[C@@H](CC(=O)O)C(=O)N[C@@H](CC(C)C)C(=O)N[C@H](C(=O)N[C@@H](Cc1ccccc1)C(=O)N[C@@H](Cc1c[nH]cn1)C(=O)N[C@@H](CC(C)C)C(=O)N[C@@H](CC(C)C)C(=O)N[C@@H](CCCNC(=N)N)C(=O)N[C@H](C(=O)N[C@@H](CC(C)C)C(=O)N[C@@H](CC(C)C)C(=O)N[C@@H](CCC(=O)O)C(=O)N[C@@H](CC(C)C)C(=O)N[C@@H](C)C(=O)N[C@@H](CCCNC(=N)N)C(=O)N[C@H](C(=O)N[C@@H](CCC(N)=O)C(=O)N[C@@H](CO)C(=O)N[C@@H](CCC(N)=O)C(=O)N[C@@H](CCCNC(=N)N)C(=O)N[C@@H](CCC(=O)O)C(=O)N[C@@H](CCCNC(=N)N)C(=O)N[C@@H](C)C(=O)N[C@@H](CCC(=O)O)C(=O)N[C@@H](CCC(N)=O)C(=O)N[C@@H](CC(N)=O)C(=O)N[C@@H](CCCNC(=N)N)C(=O)N[C@H](C(=O)N[C@H](C(=O)N[C@@H](Cc1ccccc1)C(=O)N[C@@H](CC(=O)O)C(=O)N[C@@H](CO)C(=O)N[C@H](C(N)=O)C(C)C)[C@@H](C)CC)[C@@H](C)CC)[C@@H](C)O)[C@@H](C)O)[C@@H](C)O` [Compound 2, pBB-rUcn], the Ki (rCRFBP [1]) was < 1 nM and 0.99 nM, the “Photoadduct yield by integration of the UV trace” value (rCRFBP [2]; HPLC of affinity purified photoreaction products (FIG. 8)) was 60% and the Maximal photoadduct yield (rCRFBP [2]; Western blot densitometry, 30 min irradiation with B 270 filter screen (FIG. 4C)) was “up to 50%”. The “Photoadduct yield determined by immunoblotting” value (rCRFBP [2]) was 50% and the “Photoadduct yield by SDS PAGE silver staining” value (rCRFBP [2]; preparative scale, nickel-affinity purified (FIG. 7)) was 50%.

For `CC[C@H](C)[C@H](NC(=O)[C@H](CO)NC(=O)[C@H](CC(C)C)NC(=O)[C@@H]1CCCN1C(=O)[C@@H]1CCCN1C(=O)[C@H](CC(=O)O)NC(=O)[C@@H](N)CC(=O)O)C(=O)N[C@@H](CC(=O)O)C(=O)N[C@@H](CC(C)C)C(=O)N[C@H](C(=O)N[C@@H](Cc1ccc(C(=O)c2ccccc2)cc1)C(=O)N[C@@H](Cc1c[nH]cn1)C(=O)N[C@@H](CC(C)C)C(=O)N[C@@H](CC(C)C)C(=O)N[C@@H](CCCNC(=N)N)C(=O)N[C@H](C(=O)N[C@@H](CC(C)C)C(=O)N[C@@H](CC(C)C)C(=O)N[C@@H](CCC(=O)O)C(=O)N[C@@H](CC(C)C)C(=O)N[C@@H](C)C(=O)N[C@@H](CCCNC(=N)N)C(=O)N[C@H](C(=O)N[C@@H](CCC(N)=O)C(=O)N[C@@H](CO)C(=O)N[C@@H](CCC(N)=O)C(=O)N[C@@H](CCCNC(=N)N)C(=O)N[C@@H](CCC(=O)O)C(=O)N[C@@H](CCCNC(=N)N)C(=O)N[C@@H](C)C(=O)N[C@@H](CCC(=O)O)C(=O)N[C@@H](CCC(N)=O)C(=O)N[C@@H](CC(N)=O)C(=O)N[C@@H](CCCNC(=N)N)C(=O)N[C@H](C(=O)N[C@H](C(=O)N[C@@H](Cc1ccccc1)C(=O)N[C@@H](CC(=O)O)C(=O)N[C@@H](CO)C(=O)N[C@H](C(N)=O)C(C)C)[C@@H](C)CC)[C@@H](C)CC)[C@@H](C)O)[C@@H](C)O)[C@@H](C)O` [Compound 6, pBF^11-rUcn] (H-DDPPLSIDLT[Bpa]HLLRTLLELARTQSQRERAEQNRIIFDSV-NH2; N-terminus assumed), the Ki (rCRFBP [1]) was 400 ± 35 nM and the “Decrease of affinity to CRFBP relative to unmodified rUcn” value (rCRFBP [1]; modification within the central part of the peptide) was “three orders of magnitude”.

For `CC[C@H](C)[C@H](NC(=O)[C@H](CO)NC(=O)[C@H](CC(C)C)NC(=O)c1ccc(C(=O)c2ccccc2)cc1)C(=O)N[C@@H](CC(=O)O)C(=O)N[C@@H](CC(C)C)C(=O)N[C@H](C(=O)N[C@@H](Cc1ccccc1)C(=O)N[C@@H](Cc1c[nH]cn1)C(=O)N[C@@H](CC(C)C)C(=O)N[C@@H](CC(C)C)C(=O)N[C@@H](CCCNC(=N)N)C(=O)N[C@H](C(=O)N[C@@H](CC(C)C)C(=O)N[C@@H](CC(C)C)C(=O)N[C@@H](CCC(=O)O)C(=O)N[C@@H](CC(C)C)C(=O)N[C@@H](C)C(=O)N[C@@H](CCCNC(=N)N)C(=O)N[C@H](C(=O)N[C@@H](CCC(N)=O)C(=O)N[C@@H](CO)C(=O)N[C@@H](CCC(N)=O)C(=O)N[C@@H](CCCNC(=N)N)C(=O)N[C@@H](CCC(=O)O)C(=O)N[C@@H](CCCNC(=N)N)C(=O)N[C@@H](C)C(=O)N[C@@H](CCC(=O)O)C(=O)N[C@@H](CCC(N)=O)C(=O)O)[C@@H](C)O)[C@@H](C)O)[C@@H](C)O` [Compound 8, pBB-rUcn^5-32] ({Benzoyl(4-benzoyl)}-LSIDLTFHLLRTLLELARTQSQRERAEQ-OH), the Ki (rCRFBP [1]) was 37 ± 3.5 nM.

`CC[C@H](C)[C@H](N)C(=O)N[C@@H](CO)C(=O)N[C@@H](CC(C)C)C(=O)N[C@@H](CC(=O)O)C(=O)N[C@@H](CC(C)C)C(=O)N[C@H](C(=O)N[C@@H](Cc1ccccc1)C(=O)N[C@@H](Cc1c[nH]cn1)C(=O)N[C@@H](CC(C)C)C(=O)N[C@@H](CC(C)C)C(=O)N[C@@H](CCCNC(=N)N)C(=O)N[C@@H](CCC(=O)O)C(=O)N[C@H](C(=O)N[C@@H](CC(C)C)C(=O)N[C@@H](CCC(=O)O)C(=O)N[C@@H](CCSC)C(=O)N[C@@H](C)C(=O)N[C@@H](CCCNC(=N)N)C(=O)N[C@@H](C)C(=O)N[C@@H](CCC(=O)O)C(=O)N[C@@H](CCC(N)=O)C(=O)N[C@@H](CC(C)C)C(=O)N[C@@H](C)C(=O)N[C@@H](CCC(N)=O)C(=O)N[C@@H](CCC(N)=O)C(=O)N[C@@H](C)C(=O)N[C@@H](Cc1ccc(C(=O)c2ccccc2)cc1)C(=O)N[C@@H](CO)C(=O)O)C(C)C)[C@@H](C)O` [Compound 14, [pBPhe^32]h/rCRF^6-33] (H-ISLDLTFHLLREVLEMARAEQLAQQA[Bpa]S-OH; N-terminus assumed) showed an IC50 (rCRFBP [3]) of 2.1 nM.

In the case of `CC[C@H](C)[C@H](NC(=O)c1ccc(C(=O)c2ccccc2)cc1)C(=O)N[C@@H](CO)C(=O)N[C@@H](CC(C)C)C(=O)N[C@@H](CC(=O)O)C(=O)N[C@@H](CC(C)C)C(=O)N[C@H](C(=O)N[C@@H](Cc1ccccc1)C(=O)N[C@@H](Cc1c[nH]cn1)C(=O)N[C@@H](CC(C)C)C(=O)N[C@@H](CC(C)C)C(=O)N[C@@H](CCCNC(=N)N)C(=O)N[C@@H](CCC(=O)O)C(=O)N[C@H](C(=O)N[C@@H](CC(C)C)C(=O)N[C@@H](CCC(=O)O)C(=O)N[C@@H](CCSC)C(=O)N[C@@H](C)C(=O)N[C@@H](CCCNC(=N)N)C(=O)N[C@@H](C)C(=O)N[C@@H](CCC(=O)O)C(=O)N[C@@H](CCC(N)=O)C(=O)N[C@@H](CC(C)C)C(=O)N[C@@H](C)C(=O)N[C@@H](CCC(N)=O)C(=O)N[C@@H](CCC(N)=O)C(=O)N[C@@H](C)C(=O)N[C@@H](Cc1ccc(C(=O)c2ccccc2)cc1)C(=O)N[C@@H](CO)C(=O)O)C(C)C)[C@@H](C)O` [Compound 15, [pBPhe^32] pBB-h/rCRF^6-33] ({Benzoyl(4-benzoyl)}-ISLDLTFHLLREVLEMARAEQLAQQA[Bpa]S-OH), the IC50 (rCRFBP [3]) is reported as 14 nM and the “Decrease of affinity compared to h/rCRF^6-33” value (rCRFBP [3]; bifunctional photoprobe) is reported as “decreased by a factor of seven”.

With “H-ISLDLTFHLLREVLEMARAEQLAQQAHS-OH [Compound 9, h/rCRF^6-33, reference compound]” the “Suppression of photoadduct formation by competitor” value (“Suppression” below) (rCRFBP [2]; [4]) was “completely suppressed”.

For “LSIDLTFHLLRTLLELARTQSQRERAEQ-OH [Compound 7, rUcn^5-32, reference compound]”, the Ki (rCRFBP [1]) was 1.1 ± 0.06 nM.

In the case of [Ala^21]Svg, the “Increase of affinity to CRFBP by replacement of Glu^21 in Svg by Ala” value (CRFBP) is given as “two orders of magnitude”.

In the case of ovine CRF [oCRF, reference compound], the “Suppression” value (rCRFBP [2]; [5]) is reported as “not” and the “Suppression” value (rCRFBP [2]; [4]) is reported as “not”.

In the case of pBB-h/rCRF [Compound 4], the “Photoadduct yield determined by immunoblotting” value (rCRFBP [2]) is reported as 50%.

With pBB-h/rCRF^6-33 [Compound 10] the “Photoadduct yield at different time points of irradiation” value (rCRFBP [2]; immunodetection, densitometry (FIG. 12c)) was ≤ 65%.

With rUcn [Compound 1, reference compound] the “Suppression” value (rCRFBP [2]; [5]) was “suppressed”.
